From patent US20100130598A1, “METHODS FOR INDUCING PROGRAMMED CELL DEATH” (Novogen Research Pty Ltd., priority 2008, published 2010)

What was measured:
Format in all cases: cell-based, human
AIF and EndoG = assay: Western blot of nuclear fractions for AIF and EndoG; conditions: EOC cells, 10 μg/ml
Source text: Protein preparation and cellular fractionation. After drug treatment, protein was extracted and measured as previously described (Alvero et al, 2006). For separation of the cytoplasmic and mitochondrial fractions, cell pellets were processed using the ApoAlert™ Cell Fractionation Kit (BD Biosciences, San Jose, Calif.) according to the manufacturer's instructions. For separation of the cytoplasmic and nuclear fractions, pellets were processed using NE-PER Nuclear and Cytoplasmic Extraction (Pierce Biotechnology, Inc., Rockford, Ill.).
SDS-PAGE and Western blots. Cell lysates (20 μg protein) were denatured in sample buffer (2.5% SDS, 10% glycerol, 5% β-mercapto-ethanol, 0.15 M Tris (pH=6.8) and 0.01% bromophenol blue) and subjected to 12% SDS-PAGE as previously described (Kamsteeg et al, 2003). […]

MIAPaCa-2 cells [1] = assay: Apoptosis/necrosis by FACS (Annexin-V-FITC/PI), MIAPaCa-2
Protocol: (§1) Cells. Human pancreatic cell lines HPAC, MIAPaCa-2 and PANC-1 were obtained from the ATCC. (Manassas, Va.). The cells were maintained in DMEM media with Gln and high glucose (Mediatech, Manassas, Va.) with 10% fetal bovine serum (FBS, HyClone, Logan, Utah) and pencillin/streptomycin.
FACS Analysis. Apoptosis was measured by FACS analysis using Annexin-V-FITC and propidium iodide (PI) (Biovision, Mountain View, Calif.) as probes (Ahn et al., 2003). Mitochondrial membrane potential was measured by FACS analysis using JC-1 (Biovision) as a probe (Ahn et al., 2003). Cell cycle was analyzed on ethanol-fixed, RNaseA-treated cells staining with PI. In each spectrum, 10,000 gated events were recorded and analyzed with a FACSCalibur (BD Biosciences. San Jose, Calif.). All experiments were done in triplicate, error bars represent one standard deviation. Caspase inhibitor I (zVAD-fmk) was obtained from Calbiochem.

MIAPaCa-2 cells [2] = assay: Western blot analysis of apoptosis regulatory proteins, p21 and p53, MIAPaCa-2
Source text: as §1
Antibodies. Antibodies utilised in this study specific to p53 and, p21 were obtained from (Calbiochem, EMD, San Diego, Calif.), Caspase 9, XIAP, COX IV, Bcl2 and Akt (Cell Signaling Technology, Danvers, Mass.), Caspase 2, Cytochrome c and Bid (BD Pharmingen, San Diego, Calif.). GAPDH (RDI, Concord, Mass.) or β-actin (Sigma, St. Louis, Mo.) was used as a housekeeping gene to standardize the protein loading on the gels and blots.
Western blot analysis. Cells were seeded on 100 mm tissue culture plates and grown overnight to ˜90% confluence. Cells were then treated with the drug combinations for indicated time points. After the final treatment step, the cells were lysed with 500 μL of a lysis buffer containing 1% Nonidet P-40, 0.1% SDS, 0.5% deoxycholate, 150 mM NaCl, 50 mM Tris-HCl pH7.5, 1 mM EDTA, 1 mM PMSF and protease inhibitors (Roche) on ice for 30 minutes. Cell lysates were harvested with a sterile cell scraper and centrifuged at 15,000×g for 15 minutes to remove cell debris. Protein was assayed by the BCA method (Pierce) and 50 μg aliquots were separated on 12%, T, 2.6%C SDS-PAGE gels. Proteins were electrophoretically transferred to PVDF membranes (Immobilon P, Millipore, Billerica, Mass.) by the wet transfer method. These membranes were probed with specific antibodies and with anti-GAPDH which was used as the housekeeping gene to standardize the protein loading. The blots were developed on X-ray films using HRP-conjugated secondary antibodies (Southern Biotech, Birmingham, Ala.) and a chemiluminescent substrate (ECL, Amersham, N.Y.).

[3] = MIAPaCa-2, dose-escalating, 48 hr exposure

Row | SMILES | level of nuclear AIF (AIF and EndoG) | level of nuclear EndoG (AIF and EndoG) | effect of zVAD-fmk pre-treatment on induced necrosis (MIAPaCa-2 cells [1]; MIAPaCa-2, 10 μM zVAD-fmk 1 h before 10 μM Compound 10) | effect of zVAD-fmk pre-treatment on induced apoptosis (MIAPaCa-2 cells [1]; MIAPaCa-2, 10 μM zVAD-fmk 1 h pre-treatment, 10 μM Compound 10 or 50 ng/mL TRAIL) | apoptosis (MIAPaCa-2 cells [1]; [3]) | necrosis (MIAPaCa-2 cells [1]; [3]) | expression of p53 (MIAPaCa-2 cells [2]; MIAPaCa-2 (mutant p53), 10 μM) | cleavage of Caspase 3 (MIAPaCa-2 cells [2]; MIAPaCa-2, 10 μM) | full-length Caspase 2 (48Kd) cleavage (MIAPaCa-2 cells [2]; MIAPaCa-2, 10 μM) | levels of Bcl2 (MIAPaCa-2 cells [2]; MIAPaCa-2, 10 μM) | p21 (MIAPaCa-2 cells [2]; MIAPaCa-2, 10 μM) | total Akt (MIAPaCa-2 cells [2]; MIAPaCa-2, 10 μM, early timepoint (4 hr)) | Bid cleavage (MIAPaCa-2 cells [2]; MIAPaCa-2, 10 μM, over time) | cleaved caspase 9 (17kd) (MIAPaCa-2 cells [2]; MIAPaCa-2, 10 μM, time course 0-48 hrs) | level of XIAP (MIAPaCa-2 cells [2]; MIAPaCa-2, 10 μM, degradation more pronounced than in HPAC)
1 | COc1ccc(C2c3ccc(O)c(C)c3OCC2c2ccc(O)cc2)cc1 (stereo not drawn) [Compound 1, 3-(4-hydroxyphenyl)-4-(4-methoxyphenyl)-8-methylchroman-7-ol] | not | increase | – | – | – | – | – | – | – | – | – | – | – | – | –
2 | COc1ccc(C2c3ccc(O)cc3OCC2c2ccc(O)cc2)cc1 (stereo not drawn) [Compound 10, 3-(4-hydroxyphenyl)-4-(4-methoxyphenyl)chroman-7-ol] | – | – | inhibited | apparently enhanced | induced apoptosis in a dose-dependent fashion | Very little necrosis | unaffected | did not cause significant cleavage | cleaved | lowered | elevated | reduced | induced Bid cleavage over time | initial drop in cleaved caspase 9 (17kd) followed by an increase after 16 hr | reduced
